# Test results as given in patent US20090081310A1, “METHOD FOR R[…] STRUCTURE CO[…] MOLD” (priority 2004, published 2009).
# Experiments:
# mold and mold spores [1] = assay: Fumigation of an approximately 50,000 ft^2 mold-contaminated building with chlorine dioxide gas (Example 1); details: 2,500 to 3,000 ppmv over 3 hours; approx. 75° F., approx. 75% relative humidity
# Method: An approximately 50,000 ft^2 mold-contaminated building (1 million cubic feet approximately) was remediated by fumigating the building with chlorine dioxide gas at a concentration within the range of 2,500 to 3,000 ppmv over a period of 3 hours. Temperature was maintained at approximately 75° F. and the relative humidity was maintained at approximately 75% before and during fumigation. Carpets and other porous materials within the contaminated building were not removed prior to fumigation. […] Porous surfaces that were black, grey and green shades prior to treatment were returned to original appearance. The mold mass was also substantially eliminated such that one to four square foot samples were required to collect 0.1 to 0.25 grams of mold residue resulting in a 99+ percent elimination in mold mass. Samples of the treated material were analyzed by PCR (polymerase chain reaction) analysis for DNA. Depending upon the initial concentration levels a 3 to 7 log reduction in DNA was observed.
# mold spores = assay: Mold remediation with chlorine dioxide gas, general finding; details: time averaged concentration about 500 to 1500 ppmv over a 12 hour period
# Method: It is an aspect of this invention to minimize the chlorine dioxide concentration and CT to the extent possible to assure decontamination while avoiding damage to building contents such as electronic equipment (e.g., telephone equipment, computers, copiers, and other electronic office equipment), furnishings, and the like. Typical chlorine dioxide concentrations are in the range of 500 to 3000 ppmv, and exposure times are typically about 8 to 12 hours. For mold remediation, a time averaged chlorine dioxide gas concentration in the range of about 500 to 1500 ppmv over a 12 hour period has been found effective for killing mold spores and eliminating allergenic effects.
# mold and mold spores [2] = assay: Fumigation of an approximately 6000 square feet mold-contaminated structure with chlorine dioxide gas (Example 2); details: 600 to 1300 ppmv for 12 hours, total CT over 9000 ppmv hours; 70 to 100° F., minimum 65% relative humidity; including mold underneath wallpaper
# Method: A structure of approximately 6000 square feet consisting of three above surface floors and a basement was located that had developed significant mold growth of a variety of species due to water intrusion and appropriate environmental conditions. […] Mold growth was visible and abundant upon walls, ceilings and other surfaces.
# The temperature of the structure was raised and maintained in the range of 70 to 100° F. (21 to 38° C.) and the relative humidity was raised to a minimum of 65%. Chlorine dioxide solution was generated in a closed fluid loop by the process described in U.S. Pat. No. 6,468,479. Chlorine dioxide gas was added to the structure at such a rate as to maintain a concentration of between 600 and 1300 ppmv for a 12 hour period and a total CT of over 9000 ppmv hours of chlorine dioxide.
# Chlorine dioxide concentration and purity were monitored by AWWA standard method 6500-ClO2-E in solution phase and a modification therewith to adapt the procedure for gas phase sampling. […] The maximum chlorine dioxide concentration detected exterior to the containment tent was less than 2 parts per billion, well within the maximum exposure guidelines established.
# Following treatment mold viability was evaluated in the structure. […]
structure (smiles),measurement,setting,value
"[O][Cl+][O-] [chlorine dioxide gas, chlorine dioxide]",elimination in mold mass,mold and mold spores [1],≥ 99%
same,viable mold and mold spores in the facility,mold and mold spores [1],substantially eliminated viable mold and mold spores
same,killing mold spores and eliminating allergenic effects,mold spores,effective
same,mold and mold spores rendered non viable,mold and mold spores [2],~100%
